According to US9133230B2, “Hydrazone derivatives having potent antitumor activity toward multi-drug resistant tumor cells” (THE UNITED STATES OF AMERICA AS REPRESENTED BY THE …, priority 2011, dated 2015):

Key:
Type in all cases: cell-based
renal cancer cell lines = assay: NCI 60 human tumor cell line screen, renal; conditions: Homo sapiens, arithmetic mean of two to nine cancer cell lines, read-out: Inhibitory concentration GI50, renal
Excerpt: (§1) Selected compounds were submitted for testing in the organ-specific panel of human tumor cell lines at the National Cancer Institute, Bethesda, Md. This screen utilized 60 human tumor cell lines, representing leukemia, melanoma, and cancers of the lung, colon, brain, ovary, kidney, prostate, and breast (Boyd, M. R., “Status of the NCl preclinical antitumor drug discovery screen”. In Principles and practice of oncology updates; De Vita, V. T., Jr. Hellman, S., Rosenberg, S. A., Eds.; Lippincott: Philadelphia, Pa., 1989; Vol. 3, pp 1-12).
(§2) The MG MID value is the average of the GI50 values for all the cell lines tested for drug concentrations in the range of 10^−4-10^−8 M (See website domain: dtp.nci.nih.gov/dtp).

[1] = test system: nonsmall cell lung cancer cell lines; assay: NCI 60 human tumor cell line screen, NSCL; conditions: Homo sapiens, arithmetic mean of two to nine cancer cell lines, read-out: Inhibitory concentration GI50, NSCL
Excerpt: as §1, §2

CNS cancer cell lines = assay: NCI 60 human tumor cell line screen, CNS; conditions: Homo sapiens, arithmetic mean of two to nine cancer cell lines, read-out: Inhibitory concentration GI50, CNS
Excerpt: as §1, §2

leukemia cell lines = assay: NCI 60 human tumor cell line screen, leukemia; conditions: Homo sapiens, arithmetic mean of two to nine cancer cell lines, read-out: Inhibitory concentration GI50, leukemia
Excerpt: as §1, §2

[2] = test system: human colon carcinoma HT-29; assay: MTS cytotoxicity assay, HT-29; conditions: Homo sapiens, HT-29, 48 h incubation
Description: (§3) In order to obtain information about the growth-inhibiting action of hydrazones reported in the present invention on tumor cells, growth inhibition was assessed for the following human tumor cell lines: human myelogenous leukemia K562, human cervical adenocarcinoma HeLa, human colon adenocarcinoma Caco-2, human colon carcinoma HT-29, human colon carcinoma HCT-15, and human breast carcinoma MCF-7.
(§4) The K562, HeLa, HT-29, HCT-15, Caco-2, and MCF-7 cell lines were obtained from the American type Culture Collection (ATCC, Manassas, Va.). K562 cells were maintained in RPMI 1640 medium (Gibco/Life Technologies, Gaithersburg, Md.) containing 10% heat-inactivated fetal bovine serum (FBS) (Atlanta Biologicals, Atlanta, Ga.) and 10000 U/L penicillin and 50 mg/L streptomycin. HeLa, HT-29, HCT-15, Caco-2 and MCF-7 cells were maintained in MEM with Earl's balanced salts, 10% FBS, penicillin, and streptomycin as above. Logarithmically growing HT-29, Caco-2, and MCF-7 cells were incubated with 0.05% trypsin containing 1 mM EDTA at 37° C. for about 5 min until cells were nonadherent and formed a single cell suspension. Trypsin activity was neutralized by adding 20-fold excess of the serum-containing medium. Cells were cultured at 37° C. in an atmosphere of air and 5% CO2.
(§5) Cytotoxicity assays were conducted by tetrazolium reduction of 3-(4,5-dimethylthiazol-2-yl)-5-(3-carboxymethoxyphenyl)-2-(4-sulfophenyl)-2H-tetrazolium (MTS) with N-methylphenazonium methyl sulfate (PMS) (CellTiter Assay, Promega, Madison, Wis.). Logarithmically growing cells were plated in 0.1 mL aliquots in 96-well microtiter plates. Cells were plated at an initial density of about 5000 cells/mL and allowed to acclimatize for 24 h. Cell suspensions were treated with various dilutions of compounds in triplicate, mixed well, and allowed to incubate for 48 h at 37° C. in an atmosphere of air and 5% CO2. To the cell suspension was added 20 μL of tetrazolium reagent, the mixture was incubated for 2 h at 37° C. in an atmosphere of air and 5% CO2, and absorbance at 490 nm was read by microplate reader. Control plates with serial dilutions of cell types were counted as a control for the assay. In all cases, controls indicated a linear response versus cell number, R^2≧0.99.

[3] = test system: prostate cancer cell lines; assay: NCI 60 human tumor cell line screen, prostate; conditions: Homo sapiens, arithmetic mean of two to nine cancer cell lines, read-out: Inhibitory concentration GI50, prostrate
Excerpt: as §1, §2

[4] = test system: human cervical adenocarcinoma HeLa; assay: MTS cytotoxicity assay, HeLa; conditions: Homo sapiens, HeLa, 48 h incubation
Description: as §3, §4, §5

[5] = test system: human myelogenous leukemia K562; assay: MTS cytotoxicity assay, K562; conditions: Homo sapiens, K562, 48 h incubation
Description: as §3, §4, §5

[6] = test system: ovarian cancer cell lines; assay: NCI 60 human tumor cell line screen, ovarian; conditions: Homo sapiens, arithmetic mean of two to nine cancer cell lines, read-out: Inhibitory concentration GI50, ovarian
Excerpt: as §1, §2

## C(=NNc1ncnc2[nH]cnc12)c1ccccn1 [I-18, 6-(2-(Pyridin-2-ylmethylene)hydrazinyl)-9H-purine]
Renal cancer cell lines
  GI50: 1.48 µM
[1]
  GI50: 1.23 µM
CNS cancer cell lines
  GI50: 0.633 µM
Leukemia cell lines
  GI50: 0.966 µM
[2]
  GI50: 3.5 µM
[3]
  GI50: 0.598 µM
[4]
  GI50: 1.9 µM
[5]
  GI50: 2.3 µM
[6]
  GI50: 0.629 µM
